In PubChem BioAssay (NCI):
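All cell lines were grown in 96-well plates and treated with compound for 48 hours. Here, GI50 denotes the concentration required for 50% inhibition of growth. TGI: total growth inhibition.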

Key:
Experiment in all cases: NCI-60 cell line screen, 48 h
U251 CNS = system: U251 CNS
COLO 205 colon = system: COLO 205 colon
SK-MEL-28 melanoma = system: SK-MEL-28 melanoma
IGROV1 ovarian = system: IGROV1 ovarian
HCT-116 colon = system: HCT-116 colon
NCI-H522 lung = system: NCI-H522 lung
HCT-15 colon = system: HCT-15 colon
T-47D breast = system: T-47D breast
HOP-92 NSCLC = system: HOP-92 NSCLC
MCF7 breast = system: MCF7 breast
HCC-2998 colon = system: HCC-2998 colon
TK-10 renal = system: TK-10 renal
RPMI-8226 leukemia = system: RPMI-8226 leukemia
SK-MEL-2 melanoma = system: SK-MEL-2 melanoma
SF-295 CNS = system: SF-295 CNS
OVCAR-3 ovarian = system: OVCAR-3 ovarian
OVCAR-8 ovarian = system: OVCAR-8 ovarian
BT-549 breast = system: BT-549 breast
DU-145 prostate = system: DU-145 prostate
SN12C renal = system: SN12C renal
NCI-H460 lung = system: NCI-H460 lung
HL-60(TB) leukemia = system: HL-60(TB) leukemia
ACHN renal = system: ACHN renal
M14 melanoma = system: M14 melanoma
SR leukemia = system: SR leukemia
SW-620 colon = system: SW-620 colon
SF-268 CNS = system: SF-268 CNS
MDA-MB-231 breast = system: MDA-MB-231 breast

**Q.** Which results are given for `COc1ccc(-n2nc(C(=O)c3ccccc3)c3nn4c(=O)cc(-c5ccccc5)nc4nc32)cc1`?
**A.** GI50 (U251 CNS): 39.2 µM; TGI (U251 CNS): > 100 µM; GI50 (COLO 205 colon): 29.1 µM; TGI (COLO 205 colon): > 100 µM; GI50 (SK-MEL-28 melanoma): 38.3 µM; TGI (SK-MEL-28 melanoma): > 100 µM; GI50 (IGROV1 ovarian): 25.9 µM; TGI (IGROV1 ovarian): > 100 µM; GI50 (HCT-116 colon): > 100 µM; TGI (HCT-116 colon): > 100 µM; GI50 (NCI-H522 lung): 23.1 µM; TGI (NCI-H522 lung): 81.2 µM; GI50 (HCT-15 colon): 43.4 µM; TGI (HCT-15 colon): > 100 µM; GI50 (T-47D breast): 32.4 µM; TGI (T-47D breast): > 100 µM; GI50 (HOP-92 NSCLC): 37.4 µM; TGI (HOP-92 NSCLC): > 100 µM; GI50 (MCF7 breast): 30.7 µM; TGI (MCF7 breast): > 100 µM; GI50 (HCC-2998 colon): 47.3 µM; TGI (HCC-2998 colon): 76.7 µM; GI50 (TK-10 renal): 40.3 µM; TGI (TK-10 renal): > 100 µM; GI50 (RPMI-8226 leukemia): 40 µM; TGI (RPMI-8226 leukemia): > 100 µM; GI50 (SK-MEL-2 melanoma): 45.8 µM; TGI (SK-MEL-2 melanoma): > 100 µM; GI50 (SF-295 CNS): 28.9 µM; TGI (SF-295 CNS): 85.2 µM; GI50 (OVCAR-3 ovarian): 30.7 µM; TGI (OVCAR-3 ovarian): > 100 µM; GI50 (OVCAR-8 ovarian): 40.1 µM; TGI (OVCAR-8 ovarian): > 100 µM; GI50 (BT-549 breast): 55.1 µM; TGI (BT-549 breast): > 100 µM; GI50 (DU-145 prostate): 49.2 µM; TGI (DU-145 prostate): > 100 µM; GI50 (SN12C renal): 41.7 µM; TGI (SN12C renal): > 100 µM; GI50 (NCI-H460 lung): 32.4 µM; TGI (NCI-H460 lung): > 100 µM; GI50 (HL-60(TB) leukemia): 29.6 µM; TGI (HL-60(TB) leukemia): > 100 µM; GI50 (ACHN renal): 45.9 µM; TGI (ACHN renal): > 100 µM; GI50 (M14 melanoma): 30.3 µM; TGI (M14 melanoma): > 100 µM; GI50 (SR leukemia): 24.9 µM; TGI (SR leukemia): > 100 µM; GI50 (SW-620 colon): 44.3 µM; TGI (SW-620 colon): > 100 µM; GI50 (SF-268 CNS): 39.1 µM; TGI (SF-268 CNS): > 100 µM; GI50 (MDA-MB-231 breast): 28.7 µM; TGI (MDA-MB-231 breast): > 100 µM
